The values below come from patent US6960470B1 (priority 1998, dated 2005).

The subject of one experiment is GABAA receptor. Format: cell-based.
In experiment [1] the test system is AMPA (glutamate subtype) receptor. In words: Whole-cell patch-clamp, evoked inward synaptic current at -60 mV (glutamate currents). The class given is cell-based. The settings on record: 2 μM NBQX; whole-cell patch-clamped neurons. As to the method:
Data were prepared as graphs of the effect of agents on the GABAA receptor-mediated transmission in the mutant and wt cells using whole-cell patch-clamping. The data included the evoked synaptic response ([…]) from whole-cell patch-clamped neurons. […] The evoked synaptic responses (averaged up to 15 each) recorded at holding potentials of 0 mV and −60 mV with the stimulating electrode placed in stratum radiatum at site 1, ˜50μm from the recording electrode at site 2, ˜250 μm from the recording electrode and at site two with the stimulus intensity increased ˜3-fold. Graphs were prepared of examples of averaged (up to 15 each) traces from patch-clamp whole-cell recordings-in wt and Δ9 mutation at […] (glutamate currents) and at 0 mV (GABAA currents). The graphs included peak amplitude of response ratios (measured at holding potentials of −60 mV and 0 mV, respectively) from cells in individual slices (n=9 slices each).

For picrotoxin, the “block of outward current recorded at 0 mV” value in the experiment with GABAA receptor is recorded as “completely blocked”.

Consider `NS(=O)(=O)c1cccc2c1c([N+](=O)[O-])cc1nc(O)c(O)nc12` [NBQX], for which the “block of outward current (di-synaptic inhibition)” value with GABAA receptor was “blocked some of the outward current”. The “block of inward current at holding potential of −60 mV” value in experiment [1] is recorded as “completely blocked”.
